Literature values, collected in paper PMC12649378, “Comparative Pharmacokinetics and Safety of a Micellar Chrysin–Quercetin–Rutin Formulation: A Randomized Crossover Trial” (Antioxidants, 2025).
Counter-ions that a name gives are not always drawn.

Columns and labels:
[1] = not given; remark: listed apart in the source

Structure (SMILES)	peak plasma levels (humans, 400 mg of unformulated chrysin) [ng/mL]	aqueous solubility [1] [µg/mL]	weak acidity (pH) [1]	circulating metabolite concentration exceeding parent chrysin concentrations (in vivo)
O=c1cc(-c2ccccc2)oc2cc(O)cc(O)c12 [chrysin, 5,7-dihydroxyflavone]	3 to 16	< 1	≈ 6.7	–
O=c1cc(-c2ccccc2)oc2cc(OS(=O)(=O)O)cc(O)c12 [chrysin sulfate]	–	–	–	~ 30 fold
